{"source": "patent EP4755888A1", "about": "(ILAb Co., Ltd., priority 2023, dated 2025)", "data": [{"target": "PD-1/PD-L1 (Homo sapiens, UniProt Q9NZQ7)", "sequence (Q9NZQ7 19-238 limits assumed)": "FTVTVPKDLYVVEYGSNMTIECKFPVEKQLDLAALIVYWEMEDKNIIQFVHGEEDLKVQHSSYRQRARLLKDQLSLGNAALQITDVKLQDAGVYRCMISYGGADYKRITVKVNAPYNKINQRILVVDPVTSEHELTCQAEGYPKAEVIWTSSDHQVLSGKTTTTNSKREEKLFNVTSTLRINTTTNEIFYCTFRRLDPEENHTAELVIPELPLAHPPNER", "assay": "TR-FRET PD-1/PD-L1 binding inhibition at the molecular level (free proteins)", "settings": "Tag1-PD-L1 and Tag2-PD-1 proteins, twelve concentrations from 200 nM, 2 hours at room temperature, read-out: FRET assay (IC50)", "method_in_brief": "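HTRF read-out at 665/620 nm after 2 h at room temperature. Detection used anti-Tag1 Eu cryptate plus anti-Tag2 XL665 antibodies. Tagged PD-L1 and PD-1 proteins were pre-mixed with compound across twelve […] 1:2 dilutions starting at 200 nM.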", "units": {"IC50": "nM"}, "values": [{"compound": "Cc1nc(Nc2cccc(-c3cccc(NC(=O)c4cc5n(n4)CCC[C@H]5NC(C)(C)C(=O)O)c3Cl)c2Cl)c2ncccc2n1", "note": "[Compound 280, (R)-2-((2-((2,2'-dichloro-3'-((2-methylpyrido[3,2-d]pyrimidin-4-yl)amino)-[1,1'-biphenyl]-3-yl)carbamoyl)-4,5,6,7-tetrahydropyrazolo[1,5-a]pyridin-4-yl)amino)-2-methylpropanoic acid]", "IC50": "< 10"}, {"compound": "Cc1nc(Nc2cccc(-c3cccc(NC(=O)c4cc5n(n4)CCC[C@@H]5N4CC(C(=O)O)C4)c3Cl)c2Cl)c2ncccc2n1", "note": "[Compound 281, (S)-1-(2-((2,2'-dichloro-3'-((2-methylpyrido[3,2-d]pyrimidin-4-yl)amino)-[1,1'-biphenyl]-3-yl)carbamoyl)-4,5,6,7-tetrahydropyrazolo[1,5-a]pyridin-4-yl)azetidine-3-carboxylic acid]", "IC50": "< 10"}, {"compound": "Cc1nc(Nc2cccc(-c3cccc(NC(=O)c4cc5n(n4)CCC[C@H]5N4CC(C(=O)O)C4)c3Cl)c2Cl)c2ncccc2n1", "note": "[Compound 282, (R)-1-(2-((2,2'-dichloro-3'-((2-methylpyrido[3,2-d]pyrimidin-4-yl)amino)-[1,1'-biphenyl]-3-yl)carbamoyl)-4,5,6,7-tetrahydropyrazolo[1,5-a]pyridin-4-yl)azetidine-3-carboxylic acid]", "IC50": "< 10"}, {"compound": "O=C(Nc1cccc(-c2cccc(Nc3nccc4cc(CN5CC(F)C5)cnc34)c2Cl)c1Cl)c1cc2n(n1)CCC[C@@H]2N1CCC(C(=O)O)CC1", "note": "[Compound 283, (S)-1-(2-((2,2'-dichloro-3'-((3-((3-fluoroazetidin-1-yl)methyl)-1,7-naphthyridin-8-yl)amino)-[1,1'-biphenyl]-3-yl)carbamoyl)-4,5,6,7-tetrahydropyrazolo[1,5-a]pyridin-4-yl)piperidine-4-carboxylic acid]", "IC50": "10 to 100"}, {"compound": "O=C(Nc1cccc(-c2cccc(Nc3nccc4cc(CN5CC(F)C5)cnc34)c2Cl)c1Cl)c1cc2n(n1)CCC[C@H]2N1CCC(C(=O)O)CC1", "note": "[Compound 284, (R)-1-(2-((2,2'-dichloro-3'-((3-((3-fluoroazetidin-1-yl)methyl)-1,7-naphthyridin-8-yl)amino)-[1,1'-biphenyl]-3-yl)carbamoyl)-4,5,6,7-tetrahydropyrazolo[1,5-a]pyridin-4-yl)piperidine-4-carboxylic acid]", "IC50": "10 to 100"}, {"compound": "Cc1c(NC(=O)c2cc3n(n2)CCC[C@@H]3N2CCC(O)CC2)cccc1-c1cccc(Nc2nc(C(F)(F)F)nc3cccnc23)c1C", "note": "[Compound 285, (S)-N-(2,2'-dimethyl-3'-((2-(trifluoromethyl)pyrido[3,2-d]pyrimidin-4-yl)amino)-[1,1'-biphenyl]-3-yl)-4-(4-hydroxypiperidin-1-yl)-4,5,6,7-tetrahydropyrazolo[1,5-a]pyridine-2-carboxamide]", "IC50": "10 to 100"}, {"compound": "Cc1c(NC(=O)c2cc3n(n2)CCC[C@@H]3N2CCC(O)CC2)cccc1-c1cccc(Nc2nc(C(F)F)nc3cccnc23)c1C", "note": "[Compound 287, (S)-N-(3'-((2-(difluoromethyl)pyrido[3,2-d]pyrimidin-4-yl)amino)-2,2'-dimethyl-[1,1'-biphenyl]-3-yl)-4-(4-hydroxypiperidin-1-yl)-4,5,6,7-tetrahydropyrazolo[1,5-a]pyridine-2-carboxamide]", "IC50": "10 to 100"}, {"compound": "Cc1c(NC(=O)c2cc3n(n2)CCC[C@H]3N2CCC(O)CC2)cccc1-c1cccc(Nc2nc(C(F)F)nc3cccnc23)c1C", "note": "[Compound 288, (R)-N-(3'-((2-(difluoromethyl)pyrido[3,2-d]pyrimidin-4-yl)amino)-2,2'-dimethyl-[1,1'-biphenyl]-3-yl)-4-(4-hydroxypiperidin-1-yl)-4,5,6,7-tetrahydropyrazolo[1,5-a]pyridine-2-carboxamide]", "IC50": "10 to 100"}, {"compound": "O=C(Nc1cccc(-c2cccc(Nc3nc(C(F)F)nc4cccnc34)c2Cl)c1Cl)c1cc2n(n1)CCC[C@@H]2N1CCC(C(=O)O)CC1", "note": "[Compound 289, (S)-1-(2-((2,2'-dichloro-3'-((2-(difluoromethyl)pyrido[3,2-d]pyrimidin-4-yl)amino)-[1,1'-biphenyl]-3-yl)carbamoyl)-4,5,6,7-tetrahydropyrazolo[1,5-a]pyridin-4-yl)piperidine-4-carboxylic acid]", "IC50": "< 10"}, {"compound": "Cc1c(NC(=O)c2cc3n(n2)CCC[C@@H]3N2CCC(C(=O)O)CC2)cccc1-c1cccc(Nc2nc(C(F)F)nc3cccnc23)c1C", "note": "[Compound 291, (S)-1-(2-((3'-((2-(difluoromethyl)pyrido[3,2-d]pyrimidin-4-yl)amino)-2,2'-dimethyl-[1,1'-biphenyl]-3-yl)carbamoyl)-4,5,6,7-tetrahydropyrazolo[1,5-a]pyridin-4-yl)piperidine-4-carboxylic acid]", "IC50": "10 to 100"}, {"compound": "Cc1c(NC(=O)c2cc3n(n2)CCC[C@H]3N2CCC(C(=O)O)CC2)cccc1-c1cccc(Nc2nc(C(F)F)nc3cccnc23)c1C", "note": "[Compound 292, (R)-1-(2-((3'-((2-(difluoromethyl)pyrido[3,2-d]pyrimidin-4-yl)amino)-2,2'-dimethyl-[1,1'-biphenyl]-3-yl)carbamoyl)-4,5,6,7-tetrahydropyrazolo[1,5-a]pyridin-4-yl)piperidine-4-carboxylic acid]", "IC50": "< 10"}, {"compound": "O=C(O)CN[C@H]1CCCn2nc(C(=O)Nc3cccc(-c4cccc(Nc5nc(C(F)F)nc6cc(CN7CC[C@@H](O)C7)cnc56)c4Cl)c3Cl)cc21", "note": "[Compound 293, 2-(((S)-2-((2,2'-dichloro-3'-((2-(difluoromethyl)-7-(((R)-3-hydroxypyrrolidin-1-yl)methyl)pyrido[3,2-d]pyrimidin-4-yl)amino)-[1,1'-biphenyl]-3-yl)carbamoyl)-4,5,6,7-tetrahydropyrazolo[1,5-a]pyridin-4-yl)amino)acetic acid]", "IC50": "10 to 100"}, {"compound": "O=C(Nc1cccc(-c2cccc(Nc3nc(C(F)F)nc4cc(CN5CC[C@@H](O)C5)cnc34)c2Cl)c1Cl)c1cc2n(n1)CCC[C@@H]2N1CCC(O)CC1", "note": "[Compound 295, (S)-N-(2,2'-dichloro-3'-((2-(difluoromethyl)-7-(((R)-3-hydroxypyrrolidin-1-yl)methyl)pyrido[3,2-d]pyrimidin-4-yl)amino)-[1,1'-biphenyl]-3-yl)-4-(4-hydroxypiperidin-1-yl)-4,5,6,7-tetrahydropyrazolo[1,5-a]pyridine-2-carboxamide]", "IC50": "10 to 100"}, {"compound": "O=C(Nc1cccc(-c2cccc(Nc3nc(C(F)F)nc4cc(CN5CC[C@@H](O)C5)cnc34)c2Cl)c1Cl)c1cc2n(n1)CCC[C@H]2N1CCC(O)CC1", "note": "[Compound 296, (R)-N-(2,2'-dichloro-3'-((2-(difluoromethyl)-7-(((R)-3-hydroxypyrrolidin-1-yl)methyl)pyrido[3,2-d]pyrimidin-4-yl)amino)-[1,1'-biphenyl]-3-yl)-4-(4-hydroxypiperidin-1-yl)-4,5,6,7-tetrahydropyrazolo[1,5-a]pyridine-2-carboxamide]", "IC50": "10 to 100"}, {"compound": "CC(C)c1nc(Nc2cccc(-c3cccc(NC(=O)c4cc5n(n4)CCC[C@@H]5N4CCC(C(=O)O)CC4)c3Cl)c2Cl)c2ncccc2n1", "note": "[Compound 297, (S)-1-(2-((2,2'-dichloro-3'-((2-isopropylpyrido[3,2-d]pyrimidin-4-yl)amino)-[1,1'-biphenyl]-3-yl)carbamoyl)-4,5,6,7-tetrahydropyrazolo[1,5-a]pyridin-4-yl)piperidine-4-carboxylic acid]", "IC50": "100 to 1000"}, {"compound": "CC(C)c1nc(Nc2cccc(-c3cccc(NC(=O)c4cc5n(n4)CCC[C@@H]5NC(C)(C)C(=O)O)c3Cl)c2Cl)c2ncccc2n1", "note": "[Compound 299, (S)-2-((2-((2,2'-dichloro-3'-((2-isopropyl-pyrido[3,2-d]pyrimidin-4-yl)amino)-[1,1'-biphenyl]-3-yl)carbamoyl)-4,5,6,7-tetrahydropyrazolo[1,5-a]pyridin-4-yl)amino)-2-methylpropanoic acid]", "IC50": "10 to 100"}, {"compound": "CC(C)c1nc(Nc2cccc(-c3cccc(NC(=O)c4cc5n(n4)CCC[C@@H]5N4CC(C(=O)O)C4)c3Cl)c2Cl)c2ncccc2n1", "note": "[Compound 301, (S)-1-(2-((2,2'-dichloro-3'-((2-isopropyl-pyrido[3,2-d]pyrimidin-4-yl)amino)-[1,1'-biphenyl]-3-yl)carbamoyl)-4,5,6,7-tetrahydropyrazolo[1,5-a]pyridin-4-yl)azetidine-3-carboxylic acid]", "IC50": "100 to 1000"}, {"compound": "CC(C)c1nc(Nc2cccc(-c3cccc(NC(=O)c4cc5n(n4)CCC[C@H]5N4CC(C(=O)O)C4)c3Cl)c2Cl)c2ncccc2n1", "note": "[Compound 302, (R)-1-(2-((2,2'-dichloro-3'-((2-isopropyl-pyrido[3,2-d]pyrimidin-4-yl)amino)-[1,1'-biphenyl]-3-yl)carbamoyl)-4,5,6,7-tetrahydropyrazolo[1,5-a]pyridin-4-yl)azetidine-3-carboxylic acid]", "IC50": "10 to 100"}, {"compound": "O=C(Nc1cccc(-c2cccc(Nc3nc(C(F)(F)F)nc4cccnc34)c2Cl)c1Cl)c1cc2n(n1)CCC[C@@H]2N1CCC(O)CC1", "note": "[Compound 303, (S)-N-(2,2'-dichloro-3'-((2-(trifluoromethyl)pyrido[3,2-d]pyrimidin-4-yl)amino)-[1,1'-biphenyl]-3-yl)-4-(4-hydroxypiperidin-1-yl)-4,5,6,7-tetrahydropyrazolo[1,5-a]pyridine-2-carboxamide]", "IC50": "10 to 100"}, {"compound": "O=C(Nc1cccc(-c2cccc(Nc3nc(C(F)(F)F)nc4cccnc34)c2Cl)c1Cl)c1cc2n(n1)CCC[C@H]2N1CCC(O)CC1", "note": "[Compound 304, (R)-N-(2,2'-dichloro-3'-((2-(trifluoromethyl)pyrido[3,2-d]pyrimidin-4-yl)amino)-[1,1'-biphenyl]-3-yl)-4-(4-hydroxypiperidin-1-yl)-4,5,6,7-tetrahydropyrazolo[1,5-a]pyridine-2-carboxamide]", "IC50": "10 to 100"}, {"compound": "O=C(Nc1cccc(-c2cccc(Nc3nc(C(F)F)nc4cccnc34)c2Cl)c1Cl)c1cc2n(n1)CCC[C@@H]2N1CCC(O)CC1", "note": "[Compound 305, (S)-N-(2,2'-dichloro-3'-((2-(difluoromethyl)pyrido[3,2-d]pyrimidin-4-yl)amino)-[1,1'-biphenyl]-3-yl)-4-(4-hydroxypiperidin-1-yl)-4,5,6,7-tetrahydropyrazolo[1,5-a]pyridine-2-carboxamide]", "IC50": "10 to 100"}]}]}
